Non-standard residues stand in square brackets, D forms with d. Residues, ends and D or L forms follow the SMILES beside them. Dip = N[C@H](C(=O)O)C(c1ccccc1)c1ccccc1; Chg = N[C@H](C(=O)O)C1CCCCC1; NMeA = CN[C@@H](C)C(=O)O
Experiments:
[1] = in vitro; conditions: human, plasma
[2] = physchem; conditions: octan-1-ol/water

SMILES | fraction unbound at 5 h ([1]; PPB) | logD ([2]; pH 7.4, LogD7.4) | fraction unbound at 5 h [1] | logD ([2]; pH 7.4)
COCCOc1cc2ncc(C(N)=O)c(Nc3ccc(C)cc3F)c2cc1N1CCN(C)CC1 | 0.151 | 2.24 |  | 
Nc1nc2nc(-c3cccs3)cc(C(F)(F)F)n2n1 | 0.201 | 2.01 |  | 
Cc1nc(CSc2nc(N[C@H](C)CO)c3sc(=O)[nH]c3n2)cs1 | 0.0086 | 1.73 |  | 
O=C(O)CNCCNc1ccc(Cl)c(C(=O)NCC23CC4CC(CC(C4)C2)C3)c1 | 0.072 | 1.94 |  | 
COc1ccc(-c2nc3c(NCCCNC(C)=O)c(Br)cnc3[nH]2)cc1 | 0.0262 | 3.28 |  | 
O=C1COc2ccc(CNC3CCN(CCN4C(=O)COc5ccc(-c6ccco6)cc54)CC3)nc2N1 |  |  | 0.006 | 2.19
N#Cc1c(N)nc2c(c1N)CC(COc1ccccc1)O2 (stereo not given) | 0.11 | 2.08 |  | 
N#Cc1cnn2c(NC3CC3)cc(-n3ccc4ccc(CO)cc43)nc12 | 0.0191 | 3.09 |  | 
Cc1cccc(-c2nc3cc(Cl)ccc3[nH]2)n1 | 0.0111 | 4.1 |  | 
Cc1cnc(Nc2cncc(N[C@@H](C)c3ncc(F)cn3)n2)s1 | 0.173 | 1.91 |  | 
N#Cc1ccc2ccc(=O)n(CCN3CC[C@H](NCc4ccc5c(n4)NC(=O)CO5)[C@H](O)C3)c2c1 | 0.208 | 0.11 |  | 
NC(=O)c1cnc(N[C@H]2CCCNC2)c2cc(Br)sc12 | 0.179 | 1.08 |  | 
COc1cc(C(=O)NC[C@@H](O)CN2CCC(Oc3ccc(Cl)c(Cl)c3)CC2)ccc1N | 0.0032 | 3.12 |  | 
Cc1cc(Nc2nc(N[C@@H](C)c3ncc(F)cn3)ncc2C)n[nH]1 | 0.28 | 1.75 |  | 
CC[C@H]1CN(Cc2cc(Cl)ccc2OCC(=O)O)CCN1S(=O)(=O)c1ccccc1 | 0.0069 | 0.44 |  | 
COc1ccc(-c2cc(N)n3ncc(C#N)c3n2)cc1 | 0.0676 | 2.42 |  | 
CN(C)CCCN1c2ccccc2CCc2ccc(Cl)cc21 [CLOMIPRAMINE] | 0.0374 | 3.36 |  | 
O=C1COc2ccc(CNC3CCN(CCN4C(=O)COc5ccc(Br)cc54)CC3)nc2N1 |  |  | 0.0262 | 1.42
Cc1ccc(C(=O)N(CCCN)[C@H](c2nc3cc(Cl)ccc3c(=O)n2Cc2ccccc2)C(C)C)cc1 |  |  | 0.0081 | 2.88
COc1cccc(/C=C2\SC(=O)NC2=O)c1N1CCC[C@@H](N)C1 | 0.0836 | 1.27 |  | 
COc1ccc(C(CN(C)C)C2(O)CCCCC2)cc1 (stereo not given) [VENLAFAXINE] |  |  | 0.814 | 0.99
Cc1ccc(S(=O)(=O)N2N=Cc3oc(C)cc3B2O)cc1 | 0.051 | -0.28 |  | 
Cc1nc(Cl)c(Cl)n1Cc1sc2c(c1C(=O)N1CC[C@@H](O)C1)c(=O)n(C)c(=O)n2CC(C)C | 0.089 | 1.61 |  | 
Cc1cc(Nc2nc(N[C@@H](C)c3ncc(F)cn3)ncc2Br)n[nH]1 | 0.0854 | 2.39 |  | 
Cc1cnc(Nc2cc(N3CCOCC3)nc(N[C@@H](C)c3ncc(F)cn3)n2)s1 | 0.0736 | 2.68 |  | 

SMILES | fraction unbound at 5 h ([1]; PPB) | logD ([2]; pH 7.4, LogD7.4) | fraction unbound at 5 h [1] | logD ([2]; pH 7.4)
Cc1cc(Nc2nc(N[C@@H](C)c3ncc(F)cn3)nc(N3CCOCC3)c2Cl)n[nH]1 | 0.228 | 2.61 |  | 
C[C@@H](NC(=O)C1CCCCN1C)c1ccc(Nc2ncc3cc(-c4ccncc4)ccc3n2)cc1 (stereo not given in full) | 0.0383 | 3.34 |  | 
COc1cc(Nc2nc(N[C@@H](C)c3ncc(F)cn3)nc(N3CCOCC3)c2Cl)n[nH]1 | 0.0784 | 2.85 |  | 
O=C1COc2ccc(CNC3CCN(CCN4C(=O)COc5ccc(Cl)cc54)CC3)nc2N1 |  |  | 0.072 | 1.33
Cc1c(Cl)ccc(OC2CCN(C[C@H](O)CNC(=O)c3c[nH]c(=O)cc3C(F)(F)F)CC2)c1Cl | 0.0335 | 3.14 |  | 
O=C1CN(C(=O)c2ccccc2)C(c2ccccc2)c2cc(Cl)ccc2N1 (stereo not given) | 0.0606 | 3.31 |  | 
COc1ccc(-c2nc3c(OCC4CCNCC4)c(Br)cnc3[nH]2)cc1 | 0.134 | 1.55 |  | 
CCOc1cc2nnc(C(N)=O)c(Nc3cc(C)ccc3F)c2cc1N1CCN(C)CC1 | 0.107 | 3.02 |  | 
C[C@H](Nc1ncc(F)c(Nc2cc(N(C)C)[nH]n2)n1)c1ncc(F)cn1 | 0.22 | 1.98 |  | 
NC(=O)c1cnc(N[C@H]2CCCNC2)c2cc(-c3ccc(Cl)c(F)c3)sc12 | 0.0106 | 2.76 |  | 
Cc1cn([C@H]2CCCN(S(=O)(=O)c3ccc(C(N)=O)c(Oc4cccc(Cl)c4)c3)C2)c(=O)[nH]c1=O | 0.0358 | 1.96 |  | 
COc1ccc2c(c1)N(CCN1CCC(NCc3cc4c(cn3)OCCO4)CC1)C(=O)CO2 |  |  | 0.176 | 1.24
CNc1c(C(N)=O)cnc2[nH]c(-c3ccc(OCCN4CCOCC4)cc3)nc12 | 0.212 | 2.14 |  | 
CC[C@H](c1ccc(C(=O)O)c(Oc2cccc(Cl)c2)c1)N1CCC[C@H](n2cc(C)c(=O)[nH]c2=O)C1 | 0.0179 | 0.22 |  | 
O=C(Cc1ccc(Oc2ccccc2)cc1)NO | 0.02 | 2.03 |  | 
CS(=O)(=O)c1ccc([C@@H](O)[C@@H](CF)NC(=O)C(Cl)Cl)cc1 [FLORFENICOL] |  |  | 0.676 | 0.44
NC(=O)c1cnc(N[C@H]2CCCNC2)c2cc(-c3ccc(Cl)cc3)sc12 | 0.0081 | 2.78 |  | 
N#Cc1cccc(C(=O)NC[C@@H](O)CN2CCC(Oc3ccc(Cl)c(Cl)c3)CC2)c1 | 0.0647 | 3.48 |  | 
CN[C@@H](C)C(=O)N[C@H](C(=O)N[C@H]1CCCN(C(=O)Cc2ccccc2)C1)C1CCCCC1 | 0.376 | 1.32 |  | 
CN[C@@H](C)C(=O)N[C@H](C(=O)N1CCC[C@H]1C(=O)N[C@H](C(=O)OC)C(c1ccccc1)c1ccccc1)C1CCCCC1 (H-[NMeA][Chg]P[Dip]-OMe) | 0.176 | 2.42 |  | 
O=c1[nH]c([C@@H]2CCCN2)nc2c1oc1ccc(Cl)cc12 | 0.072 | 2.01 |  | 
CO[C@H]1CN(CCn2c(=O)ccc3ccc(C#N)cc32)CC[C@H]1NCc1ccc2c(n1)NC(=O)CO2 | 0.535 | 0.32 |  | 
COc1ccc2ccc(=O)n(CCN3CCC(NCc4cc5c(cn4)OCCO5)CC3)c2c1 | 0.309 | 1.31 |  | 
COc1ccc2ccc(=O)n(CCN3CCC(NCc4cc5c(cn4)OCCO5)CC3)c2n1 | 0.314 | 1.16 |  | 
COc1c2occc2cc2ccc(=O)oc12 [METHOXSALEN] | 0.0768 | 1.97 |  | 

SMILES | fraction unbound at 5 h ([1]; PPB) | logD ([2]; pH 7.4, LogD7.4) | fraction unbound at 5 h [1] | logD ([2]; pH 7.4)
CNc1c(Cl)cnc2nc(-c3ccc(OCCN4CCOCC4)cc3)[nH]c12 | 0.0191 | 2.63 |  | 
CN[C@@H](C)C(=O)N[C@H](C(=O)N[C@H]1CCCN(CCc2ccccc2F)C1)C1CCCCC1 | 0.262 | 2.51 |  | 
O=C(O)c1cn(Cc2ccccc2)c2ccccc12 |  |  | 0.0191 | 1.19
COc1cc(Nc2nc(N[C@@H](C)c3ncc(F)cn3)ncc2Br)n[nH]1 | 0.124 | 2.6 |  | 
CN[C@@H](C)C(=O)N[C@H](C(=O)N[C@H]1CCCN(CCc2ccccc2)C1)C(C)(C)C | 0.506 | 1.46 |  | 
CC(=O)Nc1ccc(Nc2ncc3cc(-c4ccncc4)ccc3n2)cc1 | 0.006 | 3.04 |  | 
Cc1cnc(Nc2cc(N3CCN(C)CC3)nc(N[C@@H](C)c3ccc(F)cn3)n2)s1 | 0.0467 | 2.9 |  | 
COc1ccc2ncc(=O)n(CCN3CC[C@@H](NCc4ccc5c(n4)NC(=O)CO5)[C@@H](O)C3)c2c1 | 0.0532 | 0.37 |  | 
CO[C@H]1CN(CCn2c(=O)ccc3ccc(C#N)cc32)CC[C@@H]1NCc1cc2c(cn1)OCCO2 | 0.16 | 1.05 |  | 
CC(=O)Nc1ccc2ccn(-c3cc(NCCN4CCCC4)n4ncc(C#N)c4n3)c2c1 | 0.0556 | 2.24 |  | 
CC(C)Cn1c(=O)n(C)c(=O)c2c(C(=O)N3CC[C@@H](O)C3)c(Cc3c[nH]c4ncccc34)sc21 | 0.314 | 1.71 |  | 
CNc1c(Br)cnc2[nH]c(-c3cccc(N)c3)nc12 | 0.0988 | 2.96 |  | 
Cc1cc(Nc2nc(N[C@@H](C)c3ncc(F)cn3)ncc2F)n[nH]1 | 0.471 | 1.79 |  | 
COc1ccc(OC)c(CNc2[nH]nc3ccnc(Oc4ccccc4)c23)c1 | 0.0142 | 4.25 |  | 
CSc1ccc(N2C(N)=NC(N)=NC2(C)C)cc1 | 0.666 | -0.84 |  | 
CCOc1cccc(/C=C2\SC(=O)NC2=O)c1N1CCC[C@@H](N)C1 | 0.0521 | 1.86 |  | 
COc1ccc2c(c1)N(CCN1CCC(NCc3ccc4c(n3)NC(=O)CO4)CC1)C(=O)CC2 | 0.0418 | 0.66 |  | 
Nc1ncnc2nc(-c3ccc(N4CCOCC4)nc3)cc(-c3cccc(Br)c3)c12 | 0.0343 | 3.2 |  | 
CC(=O)Nc1ccc2ccn(-c3cc(NCCCCO)n4ncc(C#N)c4n3)c2c1 | 0.0409 | 2.58 |  | 
COc1ncc2ccc(=O)n(CCN3CCC(NCc4cc5c(cn4)OCCO5)CC3)c2n1 | 0.276 | 0.2 |  | 
COc1ccc2ncc(=O)n(CCN3CC[C@@H](NCc4ccc5c(n4)NC(=O)CO5)[C@@H](F)C3)c2c1 | 0.244 | 0.83 |  | 
C[C@@H](NC1=CC(=O)CNC1)c1ccc(Nc2ncc3cc(-c4ccncc4)ccc3n2)cc1 | 0.0358 | 2.49 |  | 
CN[C@@H](C)C(=O)N[C@H](C(=O)N(C)[C@H]1CCCN(CCc2ccccc2)C1)C1CCCCC1 | 0.266 | 2.34 |  | 
CN[C@@H](C)C(=O)N[C@H](C(=O)N[C@H]1CCCN(CCc2ccc([N+](=O)[O-])cc2)C1)C(C)(C)C | 0.262 | 1.54 |  | 
CC[C@@H](CO)Nc1nc(SCc2ccccc2)nc2nc(N)sc12 | 0.0335 | 2.99 |  | 

Reference: ChEMBL document CHEMBL3301361, “Experimental in vitro DMPK and physicochemical data on a set of publicly disclosed compounds”
